According to the NIST ThermoML archive (doi:10.1016/j.fluid.2005.06.011):

Assays:
[1] = 308.15 K; 101.33 kPa; Liquid; Vibrating tube method
[2] = refractive index (Na D-line) (dimensionless); settings: 308.15 K; 101.33 kPa; Liquid; Standard Abbe refractometry
[3] = excess molar enthalpy (molar enthalpy of mixing); xn = mol fraction of the nth substance listed; settings: 308.15 K, 101.3 kPa, Liquid
[4] = xn = mol fraction of the nth substance listed; settings: 308.15 K, 101.3 kPa, Liquid

CCCCOC(C)=O [butyl ethanoate]
Settings	mass density [kg/m3]	refractive index
[1]	865.45	–
[2]	–	1.3908

CCCCOC(C)=O [butyl ethanoate] + C1CCCCC1
Settings	excess molar enthalpy [kcal/mol]	excess molar volume [m3/mol]
[3], x1 = 0.1409	0.195	–
[3], x1 = 0.1975	0.256	–
[3], x1 = 0.2672	0.307	–
[3], x1 = 0.3389	0.333	–
[3], x1 = 0.4035	0.331	–
[3], x1 = 0.4961	0.3	–
[3], x1 = 0.5517	0.268	–
[3], x1 = 0.6466	0.205	–
[3], x1 = 0.7965	0.112	–
[3], x1 = 0.8311	0.0947	–
[3], x1 = 0.9061	0.0565	–
[4], x1 = 0.1062	–	3.47e-07
[4], x1 = 0.1575	–	4.35e-07
[4], x1 = 0.223	–	5.21e-07
[4], x1 = 0.3004	–	6.04e-07
[4], x1 = 0.4851	–	6.74e-07
[4], x1 = 0.4863	–	6.85e-07
[4], x1 = 0.5412	–	6.54e-07
[4], x1 = 0.6489	–	6.07e-07
[4], x1 = 0.735	–	4.98e-07
[4], x1 = 0.7661	–	4.06e-07
[4], x1 = 0.8854	–	1.95e-07

CCCCOC(C)=O [butyl ethanoate] + c1ccccc1
Settings	excess molar enthalpy [kcal/mol]	excess molar volume [m3/mol]
[3], x1 = 0.1269	-0.00179	–
[3], x1 = 0.2523	-0.00335	–
[3], x1 = 0.4029	-0.005	–
[3], x1 = 0.4575	-0.00543	–
[3], x1 = 0.4958	-0.00586	–
[3], x1 = 0.5619	-0.00631	–
[3], x1 = 0.6599	-0.00655	–
[3], x1 = 0.7279	-0.00621	–
[3], x1 = 0.7714	-0.00586	–
[3], x1 = 0.8714	-0.00488	–
[4], x1 = 0.0901	–	4.2e-08
[4], x1 = 0.2214	–	7e-08
[4], x1 = 0.3662	–	7.6e-08
[4], x1 = 0.4623	–	6.9e-08
[4], x1 = 0.543	–	6e-08
[4], x1 = 0.6504	–	4.4e-08
[4], x1 = 0.7052	–	3.6e-08
[4], x1 = 0.7601	–	2.8e-08
[4], x1 = 0.8505	–	1.7e-08
[4], x1 = 0.937	–	6e-09

CCCCOC(C)=O [butyl ethanoate] + Cc1ccc(C)cc1
Settings	excess molar enthalpy [kcal/mol]	excess molar volume [m3/mol]
[3], x1 = 0.0722	-0.00356	–
[3], x1 = 0.1892	-0.00856	–
[3], x1 = 0.3182	-0.0114	–
[3], x1 = 0.359	-0.0122	–
[3], x1 = 0.4828	-0.0138	–
[3], x1 = 0.6364	-0.0136	–
[3], x1 = 0.6512	-0.0136	–
[3], x1 = 0.7888	-0.0107	–
[3], x1 = 0.8394	-0.00882	–
[3], x1 = 0.9169	-0.00545	–
[4], x1 = 0.0881	–	-8e-08
[4], x1 = 0.163	–	-1.59e-07
[4], x1 = 0.314	–	-2.47e-07
[4], x1 = 0.3481	–	-2.81e-07
[4], x1 = 0.5001	–	-3.16e-07
[4], x1 = 0.6164	–	-3.18e-07
[4], x1 = 0.738	–	-2.82e-07
[4], x1 = 0.7871	–	-2.64e-07
[4], x1 = 0.8758	–	-2.21e-07
[4], x1 = 0.9179	–	-1.71e-07

Cc1ccc(C)cc1 [1,4-dimethylbenzene]
Settings	mass density [kg/m3]	refractive index
[1]	847.91	–
[2]	–	1.4879

C1CCCCC1 [cyclohexane]
Settings	mass density [kg/m3]	refractive index
[1]	764.43	–
[2]	–	1.4205

c1ccccc1 [benzene]
Settings	mass density [kg/m3]	refractive index
[1]	862.93	–
[2]	–	1.4921

Cc1cccc(C)c1 [1,3-dimethylbenzene] + CCCCOC(C)=O
Settings	excess molar enthalpy [kcal/mol]	excess molar volume [m3/mol]
[3], x2 = 0.1568	0.00237	–
[3], x2 = 0.1886	0.00332	–
[3], x2 = 0.2879	0.00409	–
[3], x2 = 0.4265	0.00523	–
[3], x2 = 0.4818	0.00528	–
[3], x2 = 0.5375	0.00554	–
[3], x2 = 0.6365	0.00559	–
[3], x2 = 0.7881	0.00457	–
[3], x2 = 0.8286	0.0043	–
[3], x2 = 0.9169	0.00284	–
[4], x2 = 0.1509	–	-7.7e-08
[4], x2 = 0.1651	–	-8.3e-08
[4], x2 = 0.2243	–	-9.4e-08
[4], x2 = 0.314	–	-1.27e-07
[4], x2 = 0.3921	–	-1.42e-07
[4], x2 = 0.5651	–	-1.44e-07
[4], x2 = 0.669	–	-1.31e-07
[4], x2 = 0.8091	–	-9.7e-08
[4], x2 = 0.8816	–	-5.2e-08
[4], x2 = 0.9052	–	-4.3e-08

Cc1ccccc1C [1,2-dimethylbenzene] + CCCCOC(C)=O
Settings	excess molar enthalpy [kcal/mol]	excess molar volume [m3/mol]
[3], x2 = 0.0707	-0.00215	–
[3], x2 = 0.1859	-0.00296	–
[3], x2 = 0.2214	-0.00478	–
[3], x2 = 0.3134	-0.00621	–
[3], x2 = 0.3539	-0.00652	–
[3], x2 = 0.4773	-0.00693	–
[3], x2 = 0.5868	-0.00717	–
[3], x2 = 0.6462	-0.00696	–
[3], x2 = 0.8002	-0.00526	–
[3], x2 = 0.8364	-0.00454	–
[4], x2 = 0.1121	–	-2.8e-08
[4], x2 = 0.1983	–	-6.3e-08
[4], x2 = 0.2744	–	-8.2e-08
[4], x2 = 0.3652	–	-9.7e-08
[4], x2 = 0.4665	–	-1.09e-07
[4], x2 = 0.5691	–	-1.08e-07
[4], x2 = 0.606	–	-1.06e-07
[4], x2 = 0.7502	–	-9e-08
[4], x2 = 0.8041	–	-8.3e-08
[4], x2 = 0.9032	–	-5.6e-08

Cc1cccc(C)c1 [1,3-dimethylbenzene]
Settings	mass density [kg/m3]	refractive index
[1]	851.53	–
[2]	–	1.4946

CCCCOC(C)=O [butyl ethanoate] + Cc1ccccc1
Settings	excess molar enthalpy [kcal/mol]	excess molar volume [m3/mol]
[3], x1 = 0.152	-0.00698	–
[3], x1 = 0.1873	-0.0086	–
[3], x1 = 0.2873	-0.012	–
[3], x1 = 0.3922	-0.0136	–
[3], x1 = 0.4465	-0.0143	–
[3], x1 = 0.502	-0.0148	–
[3], x1 = 0.543	-0.0151	–
[3], x1 = 0.6	-0.0148	–
[3], x1 = 0.7435	-0.0124	–
[3], x1 = 0.8705	-0.0086	–
[3], x1 = 0.8898	-0.00765	–
[4], x1 = 0.055	–	-1.9e-08
[4], x1 = 0.1581	–	-6e-08
[4], x1 = 0.2744	–	-8.2e-08
[4], x1 = 0.442	–	-1e-07
[4], x1 = 0.5243	–	-1.03e-07
[4], x1 = 0.6231	–	-1.02e-07
[4], x1 = 0.7619	–	-8.9e-08
[4], x1 = 0.849	–	-6.9e-08
[4], x1 = 0.9052	–	-5.1e-08

Cc1ccccc1 [toluene]
Settings	mass density [kg/m3]	refractive index
[1]	852.8	–
[2]	–	1.4885

Cc1ccccc1C [1,2-dimethylbenzene]
Settings	mass density [kg/m3]	refractive index
[1]	867.41	–
[2]	–	1.5031
